{"source": "patent US11680049B2", "about": "“Certain (2S)-N-[(1S)-1-cyano-2-phenylethyl]-1,4-oxazepane-2-carboxamides as dipeptidyl peptidase 1 inhibitors” (AstraZeneca AB, priority 2014, dated 2023)", "key": {"[1]": {"test": "Rat quantitative whole-body autoradiography (QWBA) studies, aortic retention", "assay_type": "in vivo"}, "[2]": {"conditions": "described in literature (Schmidt et al. 1984); concomitant ultra-structural changes by electron microscopy; cited from earlier work"}}, "data": [{"molecule": "N#Cc1ccc(-c2ccc(C[C@@H](C#N)NC(=O)C3(N)CCOCC3)cc2)cc1", "note": "[WO2010/128324 (Ex. 3), 4-amino-N-[(1S)-1-cyano-2-(4′-cyanobiphenyl-4-yl)ethyl]tetrahydro-2H-pyran-4-carboxamide]", "values": [{"measurement": "aortic retention in rat QWBA studies", "setting": "[1]", "value": "high level of aortic retention"}]}, {"molecule": "CC(c1ccc(Cl)c(Cl)c1)N1N=C(N)CC1=O", "note": "(centres unmarked) [muzolimine]", "values": [{"measurement": "retention in the aorta in QWBA studies", "setting": "[2]", "value": "retained selectively in the aorta"}]}]}
